Data: patent US10934315B2, “Process for preparing bortezomib, intermediates, and crystalline forms thereof” (PHARMACORE BIOTECH CO., LTD., priority 2018, dated 2021)

Test: Stability test of crystalline form D of bortezomib in a sealed state at 0-10° C.
Type: physicochemical
Details: for Purity (%): HPLC purity
Procedure: The crystalline form of bortezomib prepared in Example 2 was subjected to a stability test in a sealed state at a temperature of 0-10° C. for 3.5 months.

(S, S) and (R, R) diastereomer (%) (1 month): 0.046%
(S, S) and (R, R) diastereomer (%) (1 week): 0.068%
(S, S) and (R, R) diastereomer (%) (2 month): 0.039%
(S, S) and (R, R) diastereomer (%) (2 week): 0.042%
(S, S) and (R, R) diastereomer (%) (3.5 month): 0.048%
Purity (%) (1 month): 99.80%
Purity (%) (1 week): 99.61%
Purity (%) (2 month): 99.74%
Purity (%) (2 week): 99.87%
Purity (%) (3.5 month): 99.69%
SMILES: CC(C)C[C@H](NC(=O)[C@H](Cc1ccccc1)NC(=O)c1cnccn1)B(O)O [Form D of Formula V, [(1R)-3-methyl-1-[[(2S)-1-oxo-3-phenyl-2-[(pyrazinylcarbonyl)amino]propyl]amino]butyl] boronic acid]
Stability (HPLC purity and crystalline form) (3.5 months): maintained in a stable state without any change in HPLC purity and crystalline form
